Data: patent US20250011307A1, “CRYSTALLINE FORMS OF BIARYL YAP/TAZ-TEAD PROTEIN-PROTEIN INTERACTION INHIBITORS” (Novartis AG, priority 2021, published 2025)

Assays:
Type in all cases: physicochemical
[1] = Hygroscopicity (loss on drying by TGA and XRPD, as is and after storage at 92% / 80% RH); conditions: for XRPD / Loss on drying by TGA [%]: Compound A forms; for Loss on drying by TGA [%]: TGA temperature per cell: Modification A 110° C., amorphous 119° C., 4-hydroxybenzoate 200° C.; for Loss on drying by TGA: Compound B forms, TGA temperature per cell: free form @233° C., succinate @205° C., L-malate @200° C., L-lactate @200° C.
[2] = Excipient compatibility stress test (HPLC degradation products, color); parameters: key to CL color: A: No change; B: Slight discoloration; C: Medium discoloration; D: Strong discoloration
[3] = Xenon light stress test of bulk (HPLC degradation products, color, XRPD); parameters: key to CL color: A: No change; B: Slight discoloration; C: Medium discoloration; D: Strong discoloration; conditions: Xenon light (1200 kLuxh, 25° C.)
Description: (§1) X-ray powder diffraction (XRPD) patterns were obtained using a Bruker Advance D8 in reflection geometry. Powders were analyzed using a zero background Si flat sample holder. The radiation used was Cu Kα (A=1.5418 Å). Patterns were measured between 2° and 40° 2theta. • Sample amount: 5-10 mg • Sample holder: zero background Si flat sample holder
as §1, with “radiation” for “radiation used”, “(λ=1.5418” for “(A=1.5418”

[4] = Solid state bulk stability stress test (HPLC degradation products, color, XRPD); parameters: key to CL color: A: No change; B: Slight discoloration; C: Medium discoloration; D: Strong discoloration
[5] = Solubility after equilibration at 25° C. for 24 h, with final pH and XRPD of solid residues
[6] = Compound A forms, 2 weeks 50° C./75% RH, 1% in mixture 1
[7] = Compound A forms, 2 weeks 50° C./75% RH, 1% in mixture 2
[8] = Compound A forms, 2 weeks 50° C./75% RH, 1% in mixture 3
[9] = Compound A forms, 2 weeks 50° C./75% RH, HGC capsule powder
[10] = Compound A forms, 2 weeks 50° C./75% RH, HPMC capsule powder
[11] = Compound A forms, 2 weeks 70° C./11% RH, 1% in mixture 1
[12] = Compound A forms, 2 weeks 70° C./11% RH, 1% in mixture 2
[13] = Compound A forms, 2 weeks 70° C./11% RH, 1% in mixture 3
[14] = Compound A forms, 2 weeks 70° C./11% RH, HGC capsule powder
[15] = Compound A forms, 2 weeks 70° C./11% RH, HPMC capsule powder
[16] = Compound A forms, 2 weeks 70° C./75% RH, 1% in mixture 1
[17] = Compound A forms, 2 weeks 70° C./75% RH, 1% in mixture 2
[18] = Compound A forms, 2 weeks 70° C./75% RH, 1% in mixture 3
[19] = Compound A forms, 2 weeks 70° C./75% RH, HPC capsule powder
[20] = Compound A forms, 2 weeks 70° C./75% RH, HPMC capsule powder
[21] = Compound A forms, 2 weeks 50° C./75% RH
[22] = Compound A forms, 2 weeks 80° C., 11% RH
[23] = Compound A forms, 2 weeks 80° C./75% RH
[24] = Compound B forms, 2 weeks 50° C./75% RH, 1% in HGC powder
[25] = Compound B forms, 2 weeks 50° C./75% RH, 1% in HPMC powder
[26] = Compound B forms, 2 weeks 50° C./closed, 1% in HGC powder
[27] = Compound B forms, 2 weeks 50° C./closed, 1% in HPMC powder
[28] = Compound B forms, clear quartz vial
[29] = Compound B forms, 2 weeks 50° C./75% RH
[30] = Compound B forms, 2 weeks 80° C./11% RH
[31] = Compound B forms, 2 weeks 80° C./75% RH

CNC(=O)c1cnc(OCCO)c(F)c1-c1c(Cl)c(F)cc2c1C[C@](c1ccccc1)([C@@H]1CCCN1)O2 [Compound A Free form Modification A, 4-((2S,4S)-5-Chloro-6-fluoro-2-phenyl-2-((S)-pyrrolidin-2-yl)-2,3-dihydrobenzofuran-4-yl)-5-fluoro-6-(2-hydroxyethoxy)-N-methylnicotinamide]
XRPD ([1]; After 1 day at 80% RH): No change | Loss on drying by TGA [%] ([1]; After 1 day at 80% RH): 0.7% (110° C.) | XRPD ([1]; After 1 day at 92% RH): No change | Loss on drying by TGA [%] ([1]; After 1 day at 92% RH): 1.0% (110° C.) | Loss on drying by TGA [%] ([1]; Hygroscopicity, before RH storage): 0.4% (110° C.) | CL color [2, 6]: A | DP[%] degradation products [2, 6]: 1.4% | CL color [2, 7]: A | DP[%] degradation products [2, 7]: 2.5% | CL color [2, 8]: A | DP[%] degradation products [2, 8]: 1.4% | CL color [2, 9]: A | DP[%] degradation products [2, 9]: 1.2% | CL color [2, 10]: A | DP[%] degradation products [2, 10]: 1.7% | CL color [2, 11]: A | DP[%] degradation products [2, 11]: 1.3% | CL color [2, 12]: A | DP[%] degradation products [2, 12]: 1.2% | CL color [2, 13]: A | DP[%] degradation products [2, 13]: 1.1% | CL color [2, 14]: A | DP[%] degradation products [2, 14]: 1.2% | CL color [2, 15]: A | DP[%] degradation products [2, 15]: 1.5% | CL color [2, 16]: gel | DP[%] degradation products [2, 16]: 6.1% | CL color [2, 17]: gel | DP[%] degradation products [2, 17]: 7.8% | CL color [2, 18]: gel | DP[%] degradation products [2, 18]: 11.8% | CL color [2, 19]: gel | DP[%] degradation products [2, 19]: 3.3% | CL color [2, 20]: gel | DP[%] degradation products [2, 20]: 6.6% | Bulk amber vial (XRPD) ([3]; Compound A forms, amber vial): No change | CL color ([3]; Compound A forms, amber vial): A | DP[%] degradation products, Bulk amber vial (HPLC) ([3]; Compound A forms, amber vial): 1.0% | Bulk clear vial (XPRD) ([3]; Compound A forms, clear vial): No change | CL color ([3]; Compound A forms, clear vial): B | DP[%] degradation products, Bulk clear vial (HPLC) ([3]; Compound A forms, clear vial): 4.1% | Bulk (XRPD) [4, 21]: No change | CL color [4, 21]: A | DP[%] degradation products, Bulk (HPLC) [4, 21]: 1.3% | Bulk (XRPD) [4, 22]: No change | CL color [4, 22]: A | DP[%] degradation products, Bulk (HPLC) [4, 22]: 1.4% | Bulk (XRPD) [4, 23]: gel | DP[%] degradation products, Bulk (HPLC) [4, 23]: 12.6% | final pH ([5]; Compound A forms, FaSSIF V2 pH 6.5): (8.07) | Sol. (solubility) ([5]; Compound A forms, FaSSIF V2 pH 6.5, target concentration 20 mg/10 mL): ~2, mg/mL | final pH ([5]; Compound A forms, FeSSIF V2 pH 5.8): (5.98) | Sol. (solubility) ([5]; Compound A forms, FeSSIF V2 pH 5.8, target concentration 20 mg/10 mL): >2, mg/mL | final pH ([5]; Compound A forms, SGF pH 2.0): (2.39) | Sol. (solubility) ([5]; Compound A forms, SGF pH 2.0, target concentration 20 mg/10 mL): >2, mg/mL | final pH ([5]; Compound A forms, Water): (9.12) | Sol. (solubility) ([5]; Compound A forms, Water, target concentration 20 mg/10 mL): 0.27, mg/mL | final pH ([5]; Compound A forms, pH 1.2, 100 mM HCl): (1.16) | Sol. (solubility) ([5]; Compound A forms, pH 1.2, 100 mM HCl, target concentration 20 mg/10 mL): >2, mg/mL | final pH ([5]; Compound A forms, pH 3.0, 50 mM citrate buffer): (3.10) | Sol. (solubility) ([5]; Compound A forms, pH 3.0, 50 mM citrate buffer, target concentration 20 mg/10 mL): >2, mg/mL | final pH ([5]; Compound A forms, pH 4.7, 50 mM acetate buffer): (4.86) | Sol. (solubility) ([5]; Compound A forms, pH 4.7, 50 mM acetate buffer, target concentration 20 mg/10 mL): >2, mg/mL | final pH ([5]; Compound A forms, pH 6.8, 50 mM phosphate buffer): (6.95) | final pH ([5]; Compound A forms, pH 6.8, 50 mM phosphate buffer with 50 mM Na taurocholate): (6.91) | Sol. (solubility) ([5]; Compound A forms, pH 6.8, 50 mM phosphate buffer with 50 mM Na taurocholate, target concentration 20 mg/10 mL): >2, mg/mL | Sol. (solubility) ([5]; Compound A forms, pH 6.8, 50 mM phosphate buffer, target concentration 20 mg/10 mL): >2, mg/mL

CNC[C@]1(c2ccccc2)Oc2cc(F)c(Cl)c(-c3c(C(N)=O)ccc(OC)c3F)c2[C@@H]1C [Compound B Free form, amorphous, 2-((2S,3S,4S)-5-Chloro-6-fluoro-3-methyl-2-((methylamino)methyl)-2-phenyl-2,3-dihydrobenzofuran-4-yl)-3-fluoro-4-methoxybenzamide]
Loss on drying by TGA ([1]; After 1 day at 92% RH): 2.14%@233 °C | Loss on drying by TGA ([1]; Hygroscopicity, As is): 1.30%@233 °C | CL color [2, 24]: A | DP[%] degradation products [2, 24]: 2.50% | CL color [2, 25]: A | DP[%] degradation products [2, 25]: 4.33% | CL color [2, 26]: A | DP[%] degradation products [2, 26]: 1.87% | CL color [2, 27]: A | DP[%] degradation products [2, 27]: 2.02% | Bulk amber vial (XRPD) ([3]; Compound B forms, amber vial): No change | CL color ([3]; Compound B forms, amber vial): A | DP[%] degradation products, Bulk amber vial (HPLC) ([3]; Compound B forms, amber vial): 0.19% | Bulk clear quartz vial (XRPD) [3, 28]: No change | CL color [3, 28]: C | DP[%] degradation products, Bulk clear quartz vial (HPLC) [3, 28]: 2.74% | Bulk (XRPD) [4, 29]: gel-like | CL color [4, 29]: A | DP[%] degradation products, Bulk (HPLC) [4, 29]: 4.84% | Bulk (XRPD) [4, 30]: gel-like | CL color [4, 30]: C | DP[%] degradation products, Bulk (HPLC) [4, 30]: 13.00% | Bulk (XRPD) [4, 31]: gel-like | CL color [4, 31]: C | DP[%] degradation products, Bulk (HPLC) [4, 31]: 14.88% | final pH ([5]; Compound B forms, Blank FaSSIF): [7.36] | Sol. (solubility) ([5]; Compound B forms, Blank FaSSIF, target concentration 2 mg/mL): 1.49 mg/mL | final pH ([5]; Compound B forms, FaSSIF V2 pH 6.5): [7.19] | Sol. (solubility) ([5]; Compound B forms, FaSSIF V2 pH 6.5, target concentration 2 mg/mL): 1.15 mg/mL | final pH ([5]; Compound B forms, FeSSIF V2 pH 5.8): [6.01] | Sol. (solubility) ([5]; Compound B forms, FeSSIF V2 pH 5.8, target concentration 2 mg/mL): >2 mg/mL | final pH ([5]; Compound B forms, SGF pH 2.0): [2.22] | Sol. (solubility) ([5]; Compound B forms, SGF pH 2.0, target concentration 2 mg/mL): >2 mg/mL | final pH ([5]; Compound B forms, Water): [8.78] | Sol. (solubility) ([5]; Compound B forms, Water, target concentration 2 mg/mL): 0.07 mg/mL | final pH ([5]; Compound B forms, pH 1.2, 100 mM HCl): [1.16] | Sol. (solubility) ([5]; Compound B forms, pH 1.2, 100 mM HCl, target concentration 2 mg/mL): >2 mg/mL | final pH ([5]; Compound B forms, pH 3.0, 50 mM citrate buffer): [3.08] | Sol. (solubility) ([5]; Compound B forms, pH 3.0, 50 mM citrate buffer, target concentration 2 mg/mL): >2 mg/mL | final pH ([5]; Compound B forms, pH 4.7, 50 mM acetate buffer): [4.84] | Sol. (solubility) ([5]; Compound B forms, pH 4.7, 50 mM acetate buffer, target concentration 2 mg/mL): >2 mg/mL | final pH ([5]; Compound B forms, pH 6.8, 50 mM phosphate buffer): [6.90] | final pH ([5]; Compound B forms, pH 6.8, 50 mM phosphate buffer with 50 mM Na taurocholate): [6.72] | Sol. (solubility) ([5]; Compound B forms, pH 6.8, 50 mM phosphate buffer with 50 mM Na taurocholate, target concentration 2 mg/mL): >2 mg/mL | Sol. (solubility) ([5]; Compound B forms, pH 6.8, 50 mM phosphate buffer, target concentration 2 mg/mL): >2 mg/mL
